pIC50: −log10 of the molar value.
How the values were obtained:
[1] = Drug stability in simulated gastric fluid (SGF), HPLC; details: SGF pH ~1.2, 37 °C, 24 h, salt forms
Procedure: To determine drug stability at low pH, the drugs were dissolved in methanol to form a concentrated stock solution. Methanol solutions were then diluted 20-fold in simulated gastric fluid, USP without pepsin (pH ~1.2; henceforth referred to as SGF). Drug solutions were then placed in a shaker incubator (New Brunswick™ Innova® 44, Eppendorf, USA) at 37 °C and 150 r.p.m. At various times, aliquots were withdrawn and stored at −20 °C until analysis. Drug concentrations in the solution were analysed using HPLC and reported as percent of the initial concentrations.
The output signal was monitored and processed using ChemStation® software (Agilent Technologies Inc., USA). Chromatographic separation was carried out on a 50 mm × 4.6 mm EC-C18 Agilent Poroshell 120 analytical column with 2.7 µm spherical particles.
The injection volume was 5 µL, and the UV detection wavelength of 260 nm was selected.
For RPV, the stationary phase was maintained at 40 °C. The mobile phase consisted of methanol: water (pH 3.5 adjusted with 0.1% formic acid) (43:57 v/v) at a flow rate of 0.9 mL/min over a 10 min run time. The injection volume was 20 µL, and the UV detector was set at 290 nm.
For CAB, the column was maintained at 45 °C and the optimized mobile phase consisted of acetonitrile: water (pH 3.5 adjusted with 0.1% formic acid) (30:70 v/v) at flow rate of 0.8 mL/min over an 8 min run time. For analysis, 5 µL of the sample was injected on to the column, and the samples were analysed at a wavelength of 260 nm.
For tenofovir alafenamide, the column was maintained at 22 °C. The mobile phase consisted initially of acetonitrile: water (pH 3.5 adjusted with 0.1% formic acid) (100:0 v/v). […] The flow rate was 0.6 mL/min and the run time was 8 min. The injection volume was 10 µL, and the UV detection wavelength of 260 nm was selected.

[2] = Drug release from polymer matrices in SGF; type: physicochemical; details: for drug released: n = 3
Procedure: Drug loaded polymer matrices were synthesized by melt mixing. Appropriate amounts of drug and polymer were weighed and mixed in a 20 mL glass vial. The vial was then placed in a convection oven at 130 °C to melt the polymer. The mixture was then transferred to a negative mould heated to the same temperature. Once the mould was filled with the melted mixture, it was removed from the oven and cooled at room temperature.
Drug release studies were performed in SGF supplemented with 5%w/w Tween® 20. The drug–polymer matrices were placed in 50 mL release media at 37 °C in an incubator shaker at 150 r.p.m. At various times, about 1 mL of the media was collected and stored at −20 °C until further analysis. The rest of the media was discarded and the drug–polymer matrix was placed in fresh media. Drug concentrations in the aliquots were measured using HPLC as described previously.

[3] = set-up: method as in ref 58 (a number printed in a supplementary file, which may have a reference list of its own: not looked up in the article's list); details: cited from earlier work
[4] = system: HIV reference strain NL4-3; set-up: method as in ref 46,55–57 (a number printed in a supplementary file, which may have a reference list of its own: not looked up in the article's list); details: wild-type virus; cited from earlier work
[5] = humans receiving the usual oral dose; stated by Reviewer 1, no reference; cited from earlier work

Compound: C[C@@H]1CCO[C@H]2Cn3cc(C(=O)NCc4ccc(F)cc4F)c(=O)c(O)c3C(=O)N12 [DTG, dolutegravir]
- stability in SGF [1]: stable
- drug released ([2]; PCL matrix, over a week): 5%
- total drug release from poly(anhydrides) relative to PCL ([2]; poly(anhydride) matrices vs PCL): 4–8 fold
- drug released ([2]; poly(ethylene glycol) matrix, within the first 6 h): 60–70%
- Half-life, τ1/2 [3]: 14 h
- Cmax ([3]; maximum plasma concentration at steady state, perfect adherence): 8.75 µM
- pIC50 [4]: 7.15
- m (slope parameter of Hill curve) [4]: 1.2
- usual Cmax in humans [5]: 3700 ng/mL

From publication PMC5760734, “Development of an oral once-weekly drug delivery system for HIV antiretroviral therapy” (Nature Communications, 2018)
